Reference: US5466784A, “Monoclonal antibodies to salinomycin and method for detecting the same” (The United States of America as represented by the …, priority 1993, dated 1995)

Tests used:
[1] = system: the 16 anti-salinomycin monoclonal antibodies SAL02-SAL13 and SAL22-SAL25; assay: Competitive inhibition ELISA, result stated for the antibodies as a group; assay type: binding, mouse
Method: (§1) The supernatant culture fluid from the cloned hybridomas may also be screened to select for those producing antibodies having a high affinity for salinomycin. Affinity my be measured using a variety of well known techniques, such as ELISA, RIA or equilibrium dialysis using labelled salinomycin. […] In accordance with this embodiment, the antibody containing supernatant is added to a salinomycin coated solid substrate such as the wells of an assay plate, together with a range of concentrations of free salinomycin as a competitor. Following incubation and washing, bound antibody in the wells is determined in the same manner as the db-ELISA. Percent inhibition may be calculated as (1-B/BO)×100 where B is the OD of a well with a competitor and BO is the mean OD of the wells without competitor (control). […] However, for even greater accuracy, the affinity may be alternatively measured at 50% inhibition (IC50).
(§2) For the competitive inhibition ELISA, the wells of a 96-well microtiter plate were coated with 250 ng SAL-BSA and blocked with ovalbumin as previously described. Two hundred μL of a competitor (free salinomycin at 20-100 ng/100 μL) in assay buffer, were added to row 2 of an antigen-coated well. The remaining wells in that row received 100 μL of assay buffer. A 100 μL aliquot of competitor was withdrawn from row 2 and serially diluted across the microtiter plate into wells 3-10. Wells 11 and 12 received no competitor. […] Plates were incubated for 1-h at 37° C. and processed as described above in the db ELISA. Percent inhibition was calculated by the following method: (1-B/B0)×100where B=the OD of a well with a competitor and B0 =mean ODs of the wells without competitor (i.e. wells 11 and 12).
(§3) Antibody Characterization. The 16 monoclonal antibodies were further evaluated for their ability to distinguish between commonly used ionophoric coccidiostats. The competitive inhibition ELISA described supra was repeated with the ionophores salinomycin (SAL), narasin (NAR), lasalocid (LAS) and monensin (MON) as competitors.

[2] = system: anti-salinomycin monoclonal antibody SAL02 (IgG2a, kappa; hybridoma ATCC HB 11954); assay: Competitive inhibition ELISA (SAL-BSA coated wells); assay type: binding, mouse; conditions: mean ± SD, n = 10 assays
Method: as §1, §2, §3

[3] = system: anti-salinomycin monoclonal antibody SAL03 (IgG2a, kappa); assay: as above; assay type: binding, mouse; conditions: mean ± SD, n = 10 assays
Method: as §1, §2, §3

[4] = system: anti-salinomycin monoclonal antibody SAL04 (IgG2a, kappa); assay: as above; assay type: binding, mouse; conditions: mean ± SD, n = 10 assays
Method: as §1, §2, §3

[5] = system: anti-salinomycin monoclonal antibody SAL05 (IgG2a, kappa); assay: as above; assay type: binding, mouse; conditions: for Mean 50% Inhibition Value (IC50) of competitor: mean ± SD, n = 10 assays
Method: as §1, §2, §3

[6] = system: anti-salinomycin monoclonal antibody SAL06 (IgG2a, kappa); assay: as above; assay type: binding, mouse; conditions: mean ± SD, n = 10 assays
Method: as §1, §2, §3

[7] = system: anti-salinomycin monoclonal antibody SAL07 (IgG2a, kappa); assay: as above; assay type: binding, mouse; conditions: mean ± SD, n = 10 assays
Method: as §1, §2, §3

[8] = system: anti-salinomycin monoclonal antibody SAL08 (IgG2a, kappa); assay: as above; assay type: binding, mouse; conditions: mean ± SD, n = 10 assays
Method: as §1, §2, §3

[9] = system: anti-salinomycin monoclonal antibody SAL09 (IgG2a, kappa); assay: as above; assay type: binding, mouse; conditions: mean ± SD, n = 10 assays
Method: as §1, §2, §3

[10] = system: anti-salinomycin monoclonal antibody SAL10 (IgG2a, kappa); assay: as above; assay type: binding, mouse; conditions: for Mean 50% Inhibition Value (IC50) of competitor: mean ± SD, n = 10 assays
Method: as §1, §2, §3

[11] = system: anti-salinomycin monoclonal antibody SAL11 (IgG2a, kappa); assay: as above; assay type: binding, mouse; conditions: mean ± SD, n = 10 assays
Method: as §1, §2, §3

[12] = system: anti-salinomycin monoclonal antibody SAL12 (IgG2a, kappa); assay: as above; assay type: binding, mouse; conditions: mean ± SD, n = 10 assays
Method: as §1, §2, §3

[13] = system: anti-salinomycin monoclonal antibody SAL13 (IgG2a, kappa); assay: as above; assay type: binding, mouse; conditions: mean ± SD, n = 10 assays
Method: as §1, §2, §3

[14] = system: anti-salinomycin monoclonal antibody SAL22 (IgG2a, kappa); assay: as above; assay type: binding, mouse; conditions: mean ± SD, n = 10 assays
Method: as §1, §2, §3

[15] = system: anti-salinomycin monoclonal antibody SAL23 (IgG2a, kappa); assay: as above; assay type: binding, mouse; conditions: mean ± SD, n = 10 assays
Method: as §1, §2, §3

[16] = system: anti-salinomycin monoclonal antibody SAL24 (IgG2a, kappa); assay: as above; assay type: binding, mouse; conditions: mean ± SD, n = 10 assays
Method: as §1, §2, §3

[17] = system: anti-salinomycin monoclonal antibody SAL25 (IgG2a, kappa); assay: as above; assay type: binding, mouse; conditions: mean ± SD, n = 10 assays
Method: as §1, §2, §3

[18] = system: monoclonal antibodies to salinomycin of Miller et al. (immunogen linked through succinate at C-20); conditions: prior art antibodies; cited from earlier work
[19] = at or below 100 ng/well (10 ppm), Table I footnote
[20] = at or below 1000 ng/well, all 16 antibodies

| SMILES | inhibition of antigen-antibody binding by competitor [1, 19] | inhibition of antigen-antibody binding by competitor [1, 20] | Mean 50% Inhibition Value (IC50) of competitor [2] [ng/well] | Mean 50% Inhibition Value (IC50) of competitor [3] [ng/well] | Mean 50% Inhibition Value (IC50) of competitor [4] [ng/well] | Mean 50% Inhibition Value (IC50) of competitor [5] [ng/well] | Mean 50% Inhibition Value (IC50) of competitor [6] [ng/well] | Mean 50% Inhibition Value (IC50) of competitor [7] [ng/well] | Mean 50% Inhibition Value (IC50) of competitor [8] [ng/well] | Mean 50% Inhibition Value (IC50) of competitor [9] [ng/well] | Mean 50% Inhibition Value (IC50) of competitor [10] [ng/well] | Mean 50% Inhibition Value (IC50) of competitor [11] [ng/well] | Mean 50% Inhibition Value (IC50) of competitor [12] [ng/well] | Mean 50% Inhibition Value (IC50) of competitor [13] [ng/well] | Mean 50% Inhibition Value (IC50) of competitor [14] [ng/well] | Mean 50% Inhibition Value (IC50) of competitor [15] [ng/well] | Mean 50% Inhibition Value (IC50) of competitor [16] [ng/well] | Mean 50% Inhibition Value (IC50) of competitor [17] [ng/well] | other results |
| --- | --- | --- | --- | --- | --- | --- | --- | --- | --- | --- | --- | --- | --- | --- | --- | --- | --- | --- | --- |
| CC[C@@H](C(=O)[C@@H](C)[C@@H](O)[C@H](C)CCc1ccc(C)c(O)c1C(=O)O)[C@H]1O[C@](CC)([C@H]2CC[C@](O)(CC)[C@H](C)O2)C[C@@H]1C [lasalocid] | Neither Lasalocid or Monensin inhibited the antigenantibody binding | no inhibition of antigen-antibody binding |  |  |  |  |  |  |  |  |  |  |  |  |  |  |  |  |  |
| CC[C@@]1([C@@H]2O[C@@H]([C@H]3O[C@@](O)(CO)[C@H](C)C[C@@H]3C)C[C@@H]2C)CC[C@H]([C@]2(C)CC[C@]3(C[C@H](O)[C@@H](C)[C@@H]([C@@H](C)[C@@H](OC)[C@H](C)C(=O)O)O3)O2)O1 [monensin] | Neither Lasalocid or Monensin inhibited the antigenantibody binding | no inhibition of antigen-antibody binding |  |  |  |  |  |  |  |  |  |  |  |  |  |  |  |  |  |
| CC[C@@H](C(=O)O)[C@@H]1O[C@@H]([C@@H](C)[C@H](O)[C@H](C)C(=O)[C@H](CC)[C@H]2O[C@]3(C=C[C@@H](O)[C@]4(CC[C@@](C)([C@H]5CC[C@](O)(CC)[C@H](C)O5)O4)O3)[C@H](C)C[C@@H]2C)[C@@H](C)C[C@@H]1C [narasin] |  |  | 0.97 ± 0.97 | 0.82 ± 0.58 | 0.34 ± 0.15 | 0.52 ± 0.62 | 0.39 ± 0.15 | 0.93 ± 0.85 | 1.09 ± 0.15 | 1.17 ± 0.27 | 1.18 ± 0.49 | 0.69 ± 0.28 | 0.67 ± 0.19 | 0.55 ± 0.20 | 0.51 ± 0.09 | 0.99 ± 0.25 | 0.98 ± 0.46 | 0.68 ± 0.34 |  |
| CC[C@@H](C(=O)[C@@H](C)[C@@H](O)[C@H](C)[C@@H]1O[C@@H]([C@@H](CC)C(=O)O)CC[C@@H]1C)[C@H]1O[C@]2(C=C[C@@H](O)[C@]3(CC[C@@](C)([C@H]4CC[C@](O)(CC)[C@H](C)O4)O3)O2)[C@H](C)C[C@@H]1C [salinomycin] |  |  | 0.62 ± 0.11 | 0.78 ± 0.72 | 0.35 ± 0.17 | 0.33 ± 0.10 | 0.78 ± 0.62 | 1.44 ± 1.28 | 0.60 ± 0.30 | 0.97 ± 0.28 | 1.76 ± 0.29 | 0.57 ± 0.25 | 0.49 ± 0.28 | 0.75 ± 0.49 | 0.56 ± 0.23 | 0.92 ± 0.15 | 1.15 ± 0.45 | 0.61 ± 0.18 | concentration that resulted in 20% inhibition (IC20) of control activity ([5]; free salinomycin as competitor): 0.174 ng; concentration that resulted in 50% inhibition IC50 ([5]; free salinomycin as competitor): 0.33 ng; concentration that resulted in 20% inhibition (IC20) of control activity ([10]; free salinomycin as competitor): 0.793 ng; concentration that resulted in 50% inhibition IC50 ([10]; free salinomycin as competitor): 1.76 ng; detection limit (reported) [18]: 50 ng; sensitivity (reported) [18]: 50 ng per well |
